Measurements: patent US4434788A, “Enhancer of anti-tumor effect” (Yamasa Shoyu Kabushiki Kaisha, priority 1980, dated 1984)

Key:
EMT-6 tumors = experiment: Radiosensitizing effect on EMT-6 tumor in mouse, cure percentage and TCD50; format: in vivo, BALB/c-strain female mice; settings: 100 mg/kg i.p. after irradiation; for Cure number/Number treated / Cure percentage: >90 days
Method: EMT-6 tumor cells (2×10^5) were inoculated intradermally into the right thighs of BALB/c-strain female mice (8 weeks old). When the tumor sizes reached 5.5 to 8.0 mm after inoculation of the tumor cells, irradiation was locally carried out with 1,000 rad to 2,700 rad of 32 MeV electron beam under no anesthesia, and thereafter 3'-dAdo and 3'-dGuo, each dissolved in physiological saline solution, were administered intraperitoneally in a dose of 100 mg/kg. After the treatments, observation was continued for longer than 90 days, and the cure percentages were determined for comparison with the control group. [formula]
(2) TCD50 =50% Tumor control dose

[1] = system: potentially lethal damage repair; experiment: PLDR-inhibiting / radiosensitizing activity (general statements)
adenosinedeaminase = settings: in bodies; cited from earlier work
LD50 (i.p.) of 3'-dAdo = settings: in vivo, ip

Nc1ncnc2c1ncn2[C@@H]1O[C@H](CO)C[C@H]1O [3'-dAdo, 3'-deoxyadenosine, reference compound]
TCD50 (50% Tumor control dose) (EMT-6 tumors; radiation doses given in rad, control 2400): 1600 rad
TCD50 ratio (EMT-6 tumors; relative to control 1.0): 0.67
Cure number/Number treated (EMT-6 tumors; 1,000 rad, control 1/23): 3/18
Cure percentage (EMT-6 tumors; 1,000 rad, control 4%): 17%
Cure number/Number treated (EMT-6 tumors; 1,500 rad, control 8/44): 14/29
Cure percentage (EMT-6 tumors; 1,500 rad, control 18%): 48%
Cure number/Number treated (EMT-6 tumors; 2,100 rad, control 9/24): 11/14
Cure percentage (EMT-6 tumors; 2,100 rad, control 38%): 79%
Cure number/Number treated (EMT-6 tumors; 2,700 rad, control 13/28): 10/15
Cure percentage (EMT-6 tumors; 2,700 rad, control 47%): 67%
Radiosensitizing activity [1]: excellent radiosensitizing activities
PLDR-inhibiting ability of 3'-dAdo in combination with 2'-deoxycoformycin ([1]; combination of 3'-dAdo with 2'-deoxycoformycin): can be strengthened and prolonged
Inactivation by adenosinedeaminase (adenosinedeaminase): readily inactivated by adenosinedeaminase in bodies
LD50 (LD50 (i.p.) of 3'-dAdo): 280 mg/kg
